Entries after “also recorded” stand apart in the source; their conditions may differ.
How the values were obtained:
Assay type in all cases: cell-based, human
Chk2 = assay: DNA damage response assay (pThr68-Chk2 / total Chk2 western blot); conditions: HeLa cells, [GI99%], 20 hr, normalized to mitoxantrone
Procedure: DNA Damage Response Assay: 250,000 HeLa cells were plated in 35 mm culture dishes and allowed to attach for 8 hr and were then treated with the [GI99%] of each compound for 20 hr (total media volume was […] with 1% DMSO). After treatment cells were lysed in 150 μL detergent buffer containing 1:100 v/v protease inhibitor cocktail (Sigma—St. Louis, Mo.). Lysates were run on denaturing 12% acrylamide gels and transferred to nitrocellulose membranes. The membranes were blocked in blotto, incubated in anti-pThr68-Chk2 antibody (Cell Signaling—Danvers, Mass.) at 1:500 v/v dilution in blotto overnight 4° C., washed, incubated in HRP conjugated anti-rabbit secondary antibody (Jackson) at 1:5,000 v/v dilution in blotto for 1 hr, and then developed. The membranes were then stripped with a reducing buffer, blocked in blotto, incubated in anti-Chk2 antibody (Biolegend—San Diego, Calif.) at 1:500 v/v dilution in blotto overnight at 4° C., washed, incubated in HRP conjugated anti-mouse secondary antibody (Jackson) at 1:5,000 v/v dilution in blotto for 1 hr, and then developed. Membranes were developed with PicoWest Developing Solution (Pierce) and exposed to film. The intensities of bands were quantified as described in the previous section. The data are expressed as the average ratio of pThr68-Chk2 to total Chk2 as normalized to the mitoxantrone control in each of three independent experiments.
Topoisomerase inhibition by most mechanisms should cause activation of DNA damage response pathways because of the production of single and double strand DNA breaks, as is the case with amonafide. […] Therefore, measuring the DNA damage response at a fixed cytotoxic dose ([GI99%]) will determine the extent that DNA damage contributes to the cytotoxicity of these compounds. […] Activation of Chk2 was determined by measuring the ratio of pThr68-Chk2 to total Chk2 in HeLa cells treated with the [GI99%].

HeLa cells [1] = assay: Transwell invasion assay; conditions: [GI99%], matrigel, 20 hr
Procedure: Transwell Invasion Assay: HeLa cells were plated at 250,000 per 35 mm well and allowed to attach for 8 hr. The cells were washed with PBS and then treated for 4 hr with the [GI99%] of each compound (or 1% DMSO—vehicle control) in serum free media to decrease the number of invading cells in the beginning of the experiment due to a preliminary lack of drug exposure. The cells were then trypsinized and counted by trypan blue exclusion with a hemacytometer (Sigma—St. Louis, Mo.). Eight micron pore size control well inserts for 12 well plates (BD Biosciences) were coated with 100 μL 1 mg/mL matrigel (Sigma—St. Louis, Mo.) and allowed to solidify at room temperature for 1 hr. The excess matrigel was aspirated and the inserts were gently washed with PBS. The cells were seeded at a density of 300,000 per insert well in a volume of 500 μL serum free media containing a derivative or vehicle. The inserts were then placed in wells containing 700 μL serum free media with the respective compound. After 20 hr the cells on the top of the membranes were gently removed with a cotton swab, the membranes then were fixed in methanol for 1 min, stained in Gills No. 3 Hematoxylin (Sigma—St. Louis, Mo.) for 5 min, rinsed in tap water, and allowed to dry overnight. The membranes were excised, mounted on slides, and the cells were counted under the 40× objective of a bright field microscope. The data are expressed as the average total number of invading cells counted in 20 fields of each membrane, as standardized to the vehicle control, from six experiments.
Effect of derivatives on the malignant phenotype—invasion assay: If A1-A9 have differential targets, DNA binding specificity, or downstream effects they may differentially alter the malignant behavior of cells. Also, anti-cancer compounds can be efficacious against tumors in other ways besides inhibiting growth and inducing death of cancer cells; they can also alter the behavior of malignant cells. Therefore, the ability of A1-A9 and amonafide to alter the invasive behavior of cancer cells in a transwell (also known as Boyden chamber) invasion assay was evaluated, which determines the ability of cells to migrate through a proteinacious gel. This behavior is considered to be representative of cancer cell invasion through the basement membrane of the primary tumor environment. In this assay, treated cells are seeded on to the top of the matrigel-coated porous membrane, allowed to invade through the proteinacious gel onto the underside of the membrane, and then counted.

HeLa cells [2] = assay: Perinucleolar compartment (PNC) prevalence reduction; conditions: [GI50%] for 72 hr
Procedure: Perinucleolar Compartment (PNC) Reduction: HeLa cells (PNC prevalence ˜85%) were plated 5,000/well in glass bottom 96 well plates and allowed to attach for 8 hr. The cells were then treated with compounds at the respective [GI50%] for 72 hr and [GI99%] for 20 hr for each compound (total media volume was 200 μL/well with 1% DMSO). After treatment cells were immunofluorescently stained as previously described, but with a Texas Red labeled secondary antibody (Jackson) instead of a FITC labeled secondary antibody. PNC prevalence (% of non-apoptotic/non-mitotic cells with 1 or more PNCs) was determined by scoring >200 cells per well with fluorescent microscope (60× objective) and images were acquired with the digital camera and image acquisition software previously mentioned. Scale bar=10 μm. Data are expressed as the average PNC prevalence (% control) of three individual experiments.
The PNC is a unique structural marker that it is only found in malignantly transformed cancer cells, irrespective of tissue origin, and indicates cells that are capable of metastasis. […] Previous studies indicate that the PNC likely conveys a functional metastatic advantage to cancer cells. The PNC prevalence (% of cells with one or more PNC) in human breast cancer positively correlates with the progression of the disease and is always near 100% in distant metastases. […] The PNC prevalence reduction was determined for amonafide and A1-A9 at the respective [GI50%] and [GI99%] doses in HeLa cells, which have a high PNC prevalence of ˜85%.

Row | SMILES | DNA damage response (ratio of pThr68-Chk2 to total Chk2) (Chk2) | invasive behavior (% invading cells vs vehicle) (HeLa cells [1]) | PNC prevalence reduction at [GI50%] (HeLa cells [2])
1 | CCCNc1ccc2c3c(cccc13)C(=O)N(CCN(C)C)C2=O [A2, 6-propylamino-2-[2-(dimethylamino)ethyl]-1H-benz[de]isoquinoline-1,3(2H)-dione] | evoked the strongest DNA damage response | – | –
2 | C=CCNc1ccc2c3c(cccc13)C(=O)N(CCN(C)C)C2=O [A3, 6-allylamino-2-[2-(dimethylamino)ethyl]-1H-benz[de]isoquinoline-1,3(2H)-dione] | – | did not significantly alter the invasive behavior of HeLa cells compared to the control | –
3 | COCCNc1ccc2c3c(cccc13)C(=O)N(CCN(C)C)C2=O [A4, 6-methoxyethylamino-2-[2-(dimethylamino)ethyl]-1H-benz[de]isoquinoline-1,3(2H)-dione] | – | greatly decreases invasion compared to amonafide and control | able effectively reduce the PNC; also recorded: reduces PNC prevalence to the same extent as amonafide; also recorded: can significantly reduce PNC prevalence
4 | CCN(CC)c1ccc2c3c(cccc13)C(=O)N(CCN(C)C)C2=O [A8, 6-diethylamino-2-[2-(dimethylamino)ethyl]-1H-benz[de]isoquinoline-1,3(2H)-dione] | – | did not significantly alter the invasive behavior of HeLa cells compared to the control | –

Source: patent US9878984B2, “Anti-cancer compounds” (NORTHWESTERN UNIVERSITY, priority 2008, dated 2018)
